Results from publication PMC4072508, “Genome-Wide Prediction and Validation of Peptides That Bind Human Prosurvival Bcl-2 Proteins” (PLoS Computational Biology, 2014).
Where two headings read alike, the source gives them in different places. No end group written: not given here.

What was measured:
Bcl-xL [1] = target: T1, Bcl-xL (Homo sapiens, UniProt Q07817); details: S1 Bim variants, specific binding measured using yeast display; ref Dutta et al. (2010); cited from earlier work
T1 construct: myc-Bcl-xL SPOT array & FP; made in house
T1 sequence (Q07817 with tags, fused parts or gaps): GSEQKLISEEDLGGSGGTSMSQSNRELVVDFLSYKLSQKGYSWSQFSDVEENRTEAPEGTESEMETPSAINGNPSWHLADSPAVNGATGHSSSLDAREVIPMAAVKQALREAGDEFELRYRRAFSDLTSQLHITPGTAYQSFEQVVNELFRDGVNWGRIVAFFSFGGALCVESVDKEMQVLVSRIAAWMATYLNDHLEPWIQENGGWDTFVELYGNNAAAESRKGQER

Mcl-1 [2] = target: T2, Mcl-1 (Homo sapiens, UniProt Q07820); details: read-out: Binder class, Mcl-1; S1 Bim variants, specific binding measured using yeast display; ref Dutta et al. (2010); cited from earlier work
T2 construct: myc-Mcl-1 SPOT array & FP; made in house
T2 sequence (Q07820 with tags, fused parts or gaps): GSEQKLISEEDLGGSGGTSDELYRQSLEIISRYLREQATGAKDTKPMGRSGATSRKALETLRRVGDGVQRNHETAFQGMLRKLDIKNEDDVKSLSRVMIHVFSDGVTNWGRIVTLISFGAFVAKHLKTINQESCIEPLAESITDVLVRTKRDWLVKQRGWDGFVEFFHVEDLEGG
Description: Negative control mutatio ...

Bcl-2 = target: T3, Bcl-2 (Homo sapiens, UniProt P10415, DEL53-91); test: Fluorescence polarization direct binding
T3 construct: myc- Bcl-2 FP; made in house
T3 sequence (P10415 with tags, fused parts or gaps DEL53-91): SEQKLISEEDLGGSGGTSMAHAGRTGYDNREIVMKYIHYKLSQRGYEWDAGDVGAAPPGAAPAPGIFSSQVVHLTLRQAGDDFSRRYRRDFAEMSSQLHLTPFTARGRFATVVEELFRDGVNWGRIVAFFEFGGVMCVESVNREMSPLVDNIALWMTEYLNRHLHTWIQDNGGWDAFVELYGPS
Method: (§1) Peptides were purified by reverse-phase HPLC using a C18 column and a linear water/acetonitrile gradient. We re-analyzed the purified peptide by mass spectrometry if there was not a single well-defined peak in HPLC chromatogram.
(§2) Fluorescence polarization (FP) assays were done at 25°C in assay buffer (20 mM NaPO4, 50 mM NaCl, 1 mM EDTA, 0.001% Triton X (v/v), pH 7.8). […] For all FP experiments, the total well volume was 120 µl. […] Anisotropy was measured using a Spectramax M5 plate reader from Molecular Devices.
(§3) Direct binding curves were fit using Pylab/Scipy/Optimize to a single-site binding model utilized previously.
(§4) ^1Best-fit KD values determined by combining all replicate titration curves and fitting to a direct binding model (see Methods). […] Values with an X followed by a number indicate the highest concentration (the number, in nM) for which signal was measured yet no binding was detected.

Bcl-w = target: T4, Bcl-w (Homo sapiens, UniProt Q92843, Q133R); test: Fluorescence polarization direct binding
T4 construct: myc-Bcl-w SPOT array & FP; made in house
T4 sequence (Q92843 with tags, fused parts or gaps Q133R): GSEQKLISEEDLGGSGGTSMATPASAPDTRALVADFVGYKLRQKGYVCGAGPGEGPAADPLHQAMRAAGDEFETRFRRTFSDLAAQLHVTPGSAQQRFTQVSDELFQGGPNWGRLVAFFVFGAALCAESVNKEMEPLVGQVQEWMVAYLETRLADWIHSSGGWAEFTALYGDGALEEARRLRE
Method: as §1, §2, §3, §4

Bcl-xL [3] = target: T1, Bcl-xL; test: Fluorescence polarization direct binding
Method: as §1, §2, §3, §4

Bfl-1 = target: T5, Bfl-1 (Homo sapiens, UniProt Q16548); test: Fluorescence polarization direct binding
T5 construct: myc- Bfl-1 SPOT array & FP; made in house
T5 sequence (Q16548 with tags, fused parts or gaps): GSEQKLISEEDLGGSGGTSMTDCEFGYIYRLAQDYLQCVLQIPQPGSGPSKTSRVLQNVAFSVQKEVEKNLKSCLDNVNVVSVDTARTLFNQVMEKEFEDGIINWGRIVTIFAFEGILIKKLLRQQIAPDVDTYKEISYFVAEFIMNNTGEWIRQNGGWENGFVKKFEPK
Method: as §1, §2, §3, §4

Mcl-1 [4] = target: T2, Mcl-1; test: Fluorescence polarization direct binding
Method: as §1, §2, §3, §4

[5] = FP direct binding, 10 nM FAM-labeled peptide, receptor titrated, 25°C, pH 7.8, fit of all replicate titrations, X+number in a cell = highest concentration (nM) measured with no binding detected, given here as >, SPNS1 fit to raw fluorescence, read-out: Best-fit KD, Bcl-2
[6] = benchmark classification of peptides newly characterized in this study, read-out: Binder class, Bcl-2
[7] = FP direct binding, 10 nM FAM-labeled peptide, receptor titrated, 25°C, pH 7.8, fit of all replicate titrations, X+number in a cell = highest concentration (nM) measured with no binding detected, given here as >, SPNS1 fit to raw fluorescence, read-out: Best-fit KD, Bcl-w
[8] = benchmark classification of peptides newly characterized in this study, read-out: Binder class, Bcl-w
[9] = FP direct binding, 10 nM FAM-labeled peptide, receptor titrated, 25°C, pH 7.8, fit of all replicate titrations, X+number in a cell = highest concentration (nM) measured with no binding detected, given here as >, SPNS1 fit to raw fluorescence, read-out: Best-fit KD, Bcl-xL
[10] = benchmark classification of peptides newly characterized in this study, read-out: Binder class, Bcl-xL
[11] = FP direct binding, 10 nM FAM-labeled peptide, receptor titrated, 25°C, pH 7.8, fit of all replicate titrations, X+number in a cell = highest concentration (nM) measured with no binding detected, given here as >, SPNS1 fit to raw fluorescence, read-out: Best-fit KD, Bfl-1
[12] = benchmark classification of peptides newly characterized in this study, read-out: Binder class, Bfl-1
[13] = Binder class, Mcl-1, benchmark classification of peptides newly characterized in this study
[14] = FP direct binding, 10 nM FAM-labeled peptide, receptor titrated, 25°C, pH 7.8, fit of all replicate titrations, X+number in a cell = highest concentration (nM) measured with no binding detected, given here as >, SPNS1 fit to raw fluorescence

Kd (Bcl-2; [5]) | Kd (Bcl-2; [6]) | Kd (Bcl-w; [7]) | Kd (Bcl-w; [8]) | Kd (Bcl-xL [3]; [9]) | Kd (Bcl-xL [3]; [10]) | Kd (Bfl-1; [11]) | Kd (Bfl-1; [12]) | Kd (Mcl-1 [4]; [13]) | Kd (Mcl-1 [4]; [14]) | Substance | Binder class (Kd bin) (Bcl-xL [1]) | Kd (Mcl-1 [2]) | other results
 |  |  |  |  |  |  |  |  |  | PEIWVAQELSRAGDEFNAYYARR | < 1000 nM | > 10000 nM | 
 |  |  |  |  |  |  |  |  |  | PEIWVAQEVDRIGDEVNAYYARR | > 10000 nM | < 1000 nM | 
 |  |  |  |  |  |  |  |  |  | PEIWYAQEAKRFGDEFNAYYARR | < 1000 nM | > 10000 nM | 
 |  |  |  |  |  |  |  |  |  | PEIWYAQEIGRYGDEFNAYYARR | < 1000 nM | > 10000 nM | 
 |  |  |  |  |  |  |  |  |  | PEIWYAQEINRIGDEVNAYYARR | > 10000 nM | < 1000 nM | 
 |  |  |  |  |  |  |  |  |  | PEIWYAQEIQRYGDEFNAYYARR | < 1000 nM | > 10000 nM | 
 |  |  |  |  |  |  |  |  |  | PEIWYAQEIRRAGDEFNAYYARR | < 1000 nM | > 10000 nM | 
 |  |  |  |  |  |  |  |  |  | PEIWYAQEIRRFGDEFNAYYARR | < 1000 nM | > 10000 nM | 
 |  |  |  |  |  |  |  |  |  | PEIWYAQELERIGDEVNAYYARR | > 10000 nM | < 1000 nM | 
 |  |  |  |  |  |  |  |  |  | PEIWYAQELGRAGDEFNAYYARR | < 1000 nM | > 10000 nM | 
7130 nM | 1000 to 10000 nM | 1920 nM | 1000 to 10000 nM | > 5720 nM | > 10000 nM | > 9610 nM | > 10000 nM | > 10000 nM | > 4000 nM | PILENPEILRKTADDFLNRIALT-NH2 [CCH] |  |  | 
> 3050 nM | 1000 to 10000 nM | > 4350 nM | > 10000 nM | > 7000 nM | > 10000 nM | > 3370 nM | > 10000 nM | > 10000 nM | 3850 nM | QRKHEGFERDLAALGDKVNSLGETAE-NH2 [SPTAN1] |  |  | 
98 nM | < 1000 nM | 98 nM | < 1000 nM | 39 nM | < 1000 nM | > 2280 nM | > 10000 nM | > 10000 nM | > 10000 nM | RSMVFARHLREVGDEFRSRHLNS-NH2 [POFUT2] |  |  | Best-fit KD, Bcl-2 (Bcl-2; [14]): bound tightly; Best-fit KD, Bcl-w (Bcl-w; [14]): bound tightly; Best-fit KD, Bcl-xL (Bcl-xL [3]; [14]): bound tightly
124 nM | < 1000 nM | 2490 nM | < 1000 nM | 679 nM | < 1000 nM | 1900 nM | 1000 to 10000 nM | > 10000 nM | 592 nM | RVEQMAIQIKEVGDRVNYIKRSL-NH2 [TRPM7] |  |  | 
1500 nM | < 1000 nM | 1400 nM | > 10000 nM | 650 nM | < 1000 nM | > 5680 nM | > 10000 nM | > 10000 nM | 977 nM | RYRHGAPAEQLRHLADMLTTKWATLQ-NH2 [PLEKHH1] |  |  | 
2990 nM | 1000 to 10000 nM | 3610 nM | < 1000 nM | 2540 nM | 1000 to 10000 nM | 4680 nM | 1000 to 10000 nM | > 10000 nM | 912 nM | SKFVILSAHKLVFIGDTLSRQAKAAD-NH2 [BCAR1] |  |  | 
28 nM | < 1000 nM | 871 nM | < 1000 nM | 96 nM | < 1000 nM | 278 nM | < 1000 nM | < 1000 nM | 19 nM | SYMVLAPVFGYLGDRYNRKYLMA-NH2 [SPNS1] |  |  | 
> 3050 nM | > 10000 nM | > 6560 nM | > 10000 nM | > 4000 nM | > 10000 nM | > 4070 nM | > 10000 nM | < 1000 nM | 22 nM | THEEVVHLLRNAGDEVTITVEYL-NH2 [SNTG2] |  |  | Best-fit KD, Mcl-1 (Mcl-1 [4]; [14]): bound tightly

Substance | Kd (Bcl-2; [5]) | Kd (Bcl-2; [6]) | Kd (Bcl-w; [7]) | Kd (Bcl-w; [8]) | Kd (Bcl-xL [3]; [9]) | Kd (Bcl-xL [3]; [10]) | Kd (Bfl-1; [11]) | Kd (Bfl-1; [12]) | Kd (Mcl-1 [4]; [13]) | Kd (Mcl-1 [4]; [14]) | Binder class (Kd bin) (Bcl-xL [1]) | Kd (Mcl-1 [2]) | other results
RLVQQSKALKELADELQERAQRP-NH2 [TRIM58] |  |  |  |  |  |  |  |  | > 10000 nM |  |  |  | Kd (Bcl-2): 975 nM; Kd (Bcl-2; Binder class, Bcl-2, benchmark classification of peptides newly characterized in this study): < 1000 nM; Kd (Bcl-w): 361 nM; Kd (Bcl-w; Binder class, Bcl-w, benchmark classification of peptides newly characterized in this study): > 10000 nM; Kd (Bcl-xL [3]): 4550 nM; Kd (Bcl-xL [3]; Binder class, Bcl-xL, benchmark classification of peptides newly characterized in this study): 1000 to 10000 nM; Kd (Bfl-1): > 4670 nM; Kd (Bfl-1; Binder class, Bfl-1, benchmark classification of peptides newly characterized in this study): > 10000 nM; Kd (Mcl-1 [4]): > 6070 nM
